# Results: patent US7407934B2, “Methods for regulating postprandial blood glucose” (Amylin Pharmaceuticals, Inc., priority 1993, dated 2008)
# Positions of bridges follow the written chain, without caps; N, C: chain ends. Residues, ends and D or L forms follow the SMILES beside them.
# Legend:
# [1] = test system: insulin-stimulated glycogen synthesis in soleus muscle; experiment: Soleus muscle assay (inhibition of insulin-stimulated glycogen synthesis); assay type: cell-based, rat
# Experimental: Concentrations of peptide dissolved in carrier-free buffers are determined by quantitative amino acid analysis, as described therein. The ability of compounds to act as agonists in this assay is determined by measuring EC50 values. […] Similar results were obtained with other agonist compounds listed above.
# [2] = test system: glucose absorption from the small intestine; experiment: Glucose absorption from duodenum / perfused small bowel in anesthetized rats; assay type: in vivo, rat
# Source text: Because the studies involved anesthetized rather than conscious rats, they are not considered in analyzing gastric motility, e.g., rate of emptying of stomach contents into the duodenum. However, the studies indicate that absorption of glucose from the duodenum into the blood was not delayed by amylin. […] In anesthetized rats, a segment of small bowel, still connected to the animal via its blood supply, was exteriorized and cannulae inserted so that the small bowel could be perfused with glucosed solutions of controlled composition. The animals were cannulated also via an artery (for blood sampling) and via a vein (for infusion or amylin, insulin and glucose). The lumen was perfused with a tritium-labelled glucose solution. The passage of glucose from the lumen of the gut into the rat was measured by the appearance of the tritium label in the plasma. The supposition that such appearance of tritium in the plasma was indeed measuring glucose uptake from the gut was tested by administration of the glucose transport blocker, phloridzin. […] To ensure that the glucose gradient between the gut lumen and plasma remained constant, during amylin infusions, plasma glucose was “clamped” by an infusion of glucose that was varied in response to changes in plasma glucose.
# [3] = cited from earlier work
# [4] = Plasma amylin concentration after subcutaneous rat amylin (immuno-enzymometric assay); assay type: in vivo; details: sc, 1 μg, Peak plasma amylin concentration, 1 μg s.c., 20 min
# Experimental: The plasma from 250 μL samples collected at 10 min intervals was separated and frozen at −20° C. for analysis by a 2-site immuno-enzymometric assay developed in-house.
# To perform the immunoassay, black microtiter plates (Dynatech, Chantilly, Va.) were coated with the antibody F024-4.4 [Phelps JL, Blase E, Koda JE, unpublished] by overnight incubation at 4° C. with 20 μg antibody per mL in 50 mM carbonate at pH 9.6. Plates were washed with 0.05 M Tris/0.15 M sodium chloride/0.02% sodium azide/0.1% Tween 20 (TBS/Tween), and blocked with 1.0% nonfat dry milk powder in the same carbonate buffer for one hour at room temperature. Samples were thawed on ice, and diluted in 4% BSA/200 mg/dl bovine cholesterol supertrate (Miles Pentex reagents, Miles Laboratories, Kankakee, Ill.) if necessary. Samples or standards were added to the coated and blocked plates and incubated for one hours at room temperature. After washing, the F025-27 detection antibody conjugated to alkaline phosphatase was added. […] Bound enzyme was detected by incubation of the plates with the fluorescent substrate 4-methylumbelliferyl phosphate at 50 ug/ml in 1M diethanolamine/0.5 mM MgCl, pH 9.8 for 40 minutes at room temperature. The fluorescent signal was measured with a Dynatech Microfluor plate reader, and data analyzed on Multicalc software (Wallac, Gaithersburg, Md.). […]
# [5] = test system: plasma renin activity; details: intact rats, given subcutaneously
# Source text: This is important because lowered blood pressure is a strong stimulus to renin release.
# [6] = rats, rabbits, humans with Paget's disease; cited from earlier work
# [7] = Oral glucose tolerance test in dogs during amylin infusion (Example 1); assay type: in vivo, dog
# Experimental: Mongrel dogs (9 males, 12-17 kg wt. range) were used for this study. All animals were fasted overnight prior to each study. Each animal served as its own control for all protocols. Animals were equilibrated for 30-60 minutes prior to the start of each protocol.
# 25% glucose (1 gm/kg) was administered by mouth at t=0 minutes. […] Samples for insulin, glucose and lactate were obtained at 15 minutes intervals from t=−45 to t=180 minutes.
# [8] = test system: gastric emptying; experiment: Gastric emptying of Phenol Red methylcellulose gel after gavage (Example 5); assay type: in vivo, rat; details: for ED50 for suppression of gastric emptying: diabetic BB rats fasted 6 hours; for ED50 for change in gastric emptying: normal HSD rats fasted 20 hours
# Experimental: When BB rats were confirmed as being diabetic by glycosuria on at least 2 days, they were treated with daily s.c. injections of ultralente recombinant human insulin (Humulin-U, Eli Lilly, Indianapolis). Insulin therapy was aimed at maintaining glucose but minimizing ketones in the urine, in order to avoid hypoglycemic deaths. In fact, glycosuria was present in 88% of measurements and ketonuria in 52%. The average duration of diabetes was 53±5 days, and daily insulin requirements were 4.7±0.3 units. All animals were housed at […] in a 12:12 hour light:dark cycle (experiments being performed during the light cycle) and were fed and watered ad libitum (Diet LM-485, Teklad, Madison, Wis.).
# The determination of gastric emptying by the method described below has usually been performed after a fast of ˜20 hours to ensure that the stomach contained no chyme that would interfere with spectrophotomertric absorbance measurements. However, diabetic rats treated with Ultralente insulin could not be fasted for 20 hours. […] Such animals were therefore fasted for only 6 hours before measurement of gastric emptying. Non-diabetic rates were deprived of food for either 6 or 20 hours prior to experimentation. We have note that even non-diabetic BB rats have elevated glycated hemoglobin concentrations, possibly indicating subclinical insulitis. Both non-diabetic Harlan Sprague Dawley rats and non-diabetic BB rats animals were therefor use in comparisons with diabetic rats. Thus there were 5 treatment groups:
# Twenty minutes after gavage, rats were anesthetized using 5% halothane, the stomach exposed and clamped at the pyloric and lower esophageal spincters using artery forceps, removed and opened into an alkaline solution which was made up to a fixed volume. Stomach content was derived from the intensity of the phenol red in the alkaline solution, measured by absorbance at a wavelength of 560 nm. In most experiments, the stomach was clear. In other experiments, particulate gastric contents were centrifuged to clear the solution for absorbance measurements. Where the diluted gastric contents remained turbid, the spectroscopic absorbance due to Phenol Red was derived as the difference between that present in alkaline vs acidified diluent. In separate experiments on 7 rats, the stomach and small intestine were both excised and opened into an alkaline solution. The quantity of phenol red that could be recovered from the upper gastrointestinal tract within 20 minutes of gavage was 89±4%. To account for a maximal dye recovery of less than 100%, stomach contents remaining after 20 min were expressed as a fraction of the gastric contents recovered from control rats sacrificed immediately after gavage in the same experiment.
# Pairwise comparisons were performed using one-way analysis of variance and the Student-Newman-Keuls multiple comparisons test (Instat v2.0, GraphPad Software, San Diego) using P<0.05 as the level of significance.
Compound,EC50 [1],"Absorption of glucose from the duodenum into the blood ([2]; amylin infusion 0.35 nm/kg/min, glucose 1 g/kg)",Rate of transit of labelled glucose from small bowel lumen into plasma ([2]; perfused exteriorized small bowel segment),Plasma glucose after injection ([3]; prolonged increase from about 6),"Plasma lactate after injection ([3]; rise from about 0.5, i.v. and s.c.)",Cmax [4],Plasma renin activity [5],Lowering of plasma calcium [6],"Plasma glucose after oral glucose load ([7]; amylin infusion 50, 100 and 300 pmol/kg/min, glucose 1 gm/kg by mouth)",Effects on plasma lactate ([7]; oral glucose load),ED50 of inhibition of gastric emptying ([8]; both normal and diabetic rats (summary)),ED50 for suppression of gastric emptying ([8]; s.c.),"ED50 for suppression of gastric emptying ([8]; s.c., ±0.18 log units)","Dye recoverable from stomach 20 min after gavage ([8]; diabetic rats, 10 μg s.c. (P=0.14))",Dose restoring gastric emptying in a diabetic rat to the rate of normal rats not administered amylin ([8]; estimated from fitted curves of FIG. 14),Plasma concentrations 50% effective in inhibiting gastric emptying ([8]; inferred from plasma profile after 1 μg s.c.),ED50 for change in gastric emptying ([8]; s.c.),"ED50 for change in gastric emptying ([8]; s.c. 5 min before gavage, ±0.19 log units)","Dye recoverable from stomach 20 min after gavage ([8]; normal HSD rats, 1 μg s.c. (P=0.22))","Effect on gastric emptying (in words) ([8]; s.c. 5 min before gavage, 0.01-100 μg)"
"CC[C@H](C)[C@H](NC(=O)[C@H](C)NC(=O)CNC(=O)[C@H](Cc1ccccc1)NC(=O)[C@H](CC(N)=O)NC(=O)[C@H](CC(N)=O)NC(=O)[C@H](CO)NC(=O)[C@H](CO)NC(=O)[C@H](Cc1c[nH]cn1)NC(=O)[C@@H](NC(=O)[C@H](CC(C)C)NC(=O)[C@H](Cc1ccccc1)NC(=O)[C@H](CC(N)=O)NC(=O)[C@H](C)NC(=O)[C@H](CC(C)C)NC(=O)[C@H](CCCNC(=N)N)NC(=O)[C@H](CCC(N)=O)NC(=O)[C@@H](NC(=O)[C@H](C)NC(=O)[C@@H]1CCCCNC(=O)C[C@H](NC(=O)[C@@H](N)CCCCN)C(=O)N[C@@H](CC(N)=O)C(=O)N[C@@H]([C@@H](C)O)C(=O)N[C@@H](C)C(=O)N[C@@H]([C@@H](C)O)C(=O)N1)[C@@H](C)O)C(C)C)C(=O)N[C@@H](CC(C)C)C(=O)N[C@@H](CO)C(=O)N[C@@H](CO)C(=O)N[C@H](C(=O)N[C@@H](CC(N)=O)C(=O)N[C@H](C(=O)NCC(=O)N[C@@H](CO)C(=O)N[C@@H](CC(N)=O)C(=O)N[C@H](C(=O)N[C@@H](Cc1ccc(O)cc1)C(N)=O)[C@@H](C)O)C(C)C)[C@@H](C)O [^2,7Cyclo-[^2Asp, ^7Lys]-h-Amylin, ^2,7Cyclo-[^2Asp,^7Lys]-h-Amylin] (H-KDNTATKATQRLANFLVHSSNNFGAILSSTNVGSNTY-NH2; lactam 2-7; N-terminus and C-terminus assumed)",6.62 nM,,,,,,,,,,,,,,,,,,,
CC(C)C[C@H](NC(=O)[C@H](CC(N)=O)NC(=O)[C@H](CC(N)=O)NC(=O)[C@H](CO)NC(=O)[C@H](CO)NC(=O)[C@H](CCCNC(=N)N)NC(=O)[C@@H](NC(=O)[C@H](CC(C)C)NC(=O)[C@H](Cc1ccccc1)NC(=O)[C@H](CC(N)=O)NC(=O)[C@H](C)NC(=O)[C@H](CC(C)C)NC(=O)[C@H](CCCNC(=N)N)NC(=O)[C@H](CCC(N)=O)NC(=O)[C@@H](NC(=O)[C@H](C)NC(=O)[C@@H]1CSSC[C@H](NC(=O)[C@@H](N)CCCCN)C(=O)N[C@@H](CC(N)=O)C(=O)N[C@@H]([C@@H](C)O)C(=O)N[C@@H](C)C(=O)N[C@@H]([C@@H](C)O)C(=O)N1)[C@@H](C)O)C(C)C)C(=O)NCC(=O)N1CCC[C@H]1C(=O)N[C@H](C(=O)N[C@@H](CC(C)C)C(=O)N1CCC[C@H]1C(=O)N1CCC[C@H]1C(=O)N[C@H](C(=O)N[C@@H](CC(N)=O)C(=O)N[C@H](C(=O)NCC(=O)N[C@@H](CO)C(=O)N[C@@H](CC(N)=O)C(=O)N[C@H](C(=O)N[C@@H](Cc1ccc(O)cc1)C(N)=O)[C@@H](C)O)C(C)C)[C@@H](C)O)C(C)C [amylin],,not delayed,no effect,~11 mM,~1.5 mM,0.076 nM,markedly increases,up to 20%,reduced both the rate of rise in plasma glucose as well as the peak plasma glucose,unremarkable,~1 µg,2.3 nmol/gk,2.2 µg,the same as that recoverable immediately after gavage,~2 µg,less than 74 pM,0.60 nmole amylin/kg body weight,0.43 µg,the same as that recoverable immediately after gavage,dose dependent suppression of gastric emptying
